Measured values from the supplement of paper PMC12317010.
Counter-ions that a name gives are not always drawn.

Experiment: collision cross section in nitrogen (drift tube, single-field); higher = larger gas-phase ion size
[1] = ion type: [M-H], ion source: ESI, ion mode: Negative
[2] = ion type: [M+Na], ion source: ESI, ion mode: Positive
[3] = ion type: [M+H], ion source: APCI, ion mode: Positive
[4] = ion type: [M+H], ion source: ESI, ion mode: Positive
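Further: chemical standards at 10 µM analysed by drift tube IMS-QTOF MS in about 3.95 torr nitrogen, mean of duplicate injections differing ≤1%, mass error below 10 ppm.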

SMILES | collision cross section in nitrogen [1] [Å²] | collision cross section in nitrogen [2] [Å²] | collision cross section in nitrogen [3] [Å²] | collision cross section in nitrogen [4] [Å²] | collision cross section in nitrogen (ion type: [M+], ion source: APCI, ion mode: Positive) [Å²]
CCCCCCCCOC(=O)c1cc(O)c(O)c(O)c1 [Octyl gallate] | 171.5 |  |  |  | 
CCCCCCCCOC(=O)c1ccccc1C(=O)O [Octyl hydrogen phthalate] | 168 | 181.5 |  |  | 
CCCCCCCCOC(=O)c1ccccc1O [Octyl salicylate] | 162.2 |  |  |  | 
CCCCCCCCOC(=O)c1ccc(O)cc1 [Octylparaben] | 169.1 |  |  |  | 
CCCCCCCCP(=O)(O)O [Octylphosphonic acid] | 149.9 |  |  |  | 
Cc1c(C(=O)NCCO)[n+]([O-])c2ccccc2[n+]1[O-] [Olaquindox] | 161.2 |  |  |  | 
CCCCCCCC/C=C\CCCCCCCC(=O)O [Oleic acid] | 176.3 |  |  |  | 
CCCCCCCC/C=C\CCCCCCCC(=O)N(C)CC(=O)O [Oleyl sarcosine] | 191.2 | 196 | 200.7 | 200.6 | 
CCCCCc1cc(O)cc(O)c1 [Olivetol] | 148.5 |  |  |  | 
CNC(=O)CSP(=O)(OC)OC [Omethoate] |  | 145.9 | 137.1 |  | 
CCCN(CCC)c1c([N+](=O)[O-])cc(S(N)(=O)=O)cc1[N+](=O)[O-] [Oryzalin] | 177.3 |  |  |  | 
CC(C)Oc1cc(-n2nc(C(C)(C)C)oc2=O)c(Cl)cc1Cl [Oxadiazon] | 177.1 |  |  |  | 
COCC(=O)N(c1c(C)cccc1C)N1CCOC1=O [Oxadixyl] |  | 167.1 |  |  | 
CNC(=O)ON=C(SC)C(=O)N(C)C [Oxamyl] |  | 150.9 |  |  | 
O=C1Nc2ccc(Cl)cc2C(c2ccccc2)=NC1O (configuration not stated) [Oxazepam] | 162.7 | 180 | 163.5 | 163.7 | 
NC(=O)N1c2ccccc2CC(=O)c2ccccc21 [Oxcarbazepine] |  | 162.4 | 153.9 | 154.8 | 
COC(=O)Nc1nc2cc(S(=O)c3ccccc3)ccc2[nH]1 (configuration not stated) [Oxfendazole] | 177 | 191.4 | 179 | 178.2 | 
CCn1cc(C(=O)O)c(=O)c2cc3c(cc21)OCO3 [Oxolinic acid] |  | 165 | 152.6 | 152.3 | 
CC1=C(C(=O)Nc2ccccc2)S(=O)(=O)CCO1 [Oxycarboxin] |  | 168.9 |  |  | 
CCOc1cc(Oc2ccc(C(F)(F)F)cc2Cl)ccc1[N+](=O)[O-] [Oxyfluorfen] | 172.1 |  |  |  | 

SMILES | collision cross section in nitrogen [1] [Å²] | collision cross section in nitrogen [2] [Å²] | collision cross section in nitrogen [3] [Å²] | collision cross section in nitrogen [4] [Å²] | collision cross section in nitrogen (ion type: [M+], ion source: APCI, ion mode: Positive) [Å²]
O=c1[nH]c(=O)c2c[nH]nc2[nH]1 [Oxypurinol] | 122.3 |  |  |  | 
CN(C)[C@@H]1C(O)=C(C(N)=O)C(=O)[C@@]2(O)C(O)=C3C(=O)c4c(O)cccc4[C@@](C)(O)[C@H]3[C@H](O)[C@@H]12 [Oxytetracycline hydrochloride] | 198.4 | 207.7 | 199.9 | 197.8 | 
CC(C)(C)[C@H](O)[C@H](Cc1ccc(Cl)cc1)n1cncn1 [Paclobutrazol] |  | 189.4 |  | 171.5 | 
COc1ccnc(CS(=O)c2nc3cc(OC(F)F)ccc3[nH]2)c1OC (configuration not stated) [Pantoprazole sodium] | 187 | 185.5 | 185.5 | 185.2 | 
CCOC(=O)c1ccc(N(C)C)cc1 [Parbenate] |  |  | 149.3 | 149.6 | 
OC(c1ccc(Cl)cc1)(c1ccc(Cl)cc1)c1cccnc1 [Parinol] | 177.2 |  | 183.7 | 183.1 | 
CCCC(Cn1cncn1)c1ccc(Cl)cc1Cl (configuration not stated) [Penconazole] |  |  | 166.3 | 166.1 | 
O=C(Nc1ccccc1)N(Cc1ccc(Cl)cc1)C1CCCC1 [Pencycuron] | 185.7 | 192.8 | 180.7 | 180.5 | 
CCC(CC)Nc1c([N+](=O)[O-])cc(C)c(C)c1[N+](=O)[O-] [Pendimethalin] | 163.7 |  |  |  | 
CC1(C)S[C@@H]2[C@H](NC(=O)COc3ccccc3)C(=O)N2[C@H]1C(=O)O [Penicillin VK] |  | 184.1 | 182 | 182.1 | 
COc1cnc(OC)n2nc(NS(=O)(=O)c3c(OCC(F)F)cccc3C(F)(F)F)nc12 [Penoxsulam] | 193.3 | 198.5 | 196 | 195.6 | 
Nc1c(Cl)c(Cl)c(Cl)c(Cl)c1Cl [Pentachloroaniline] | 138.4 |  |  |  | 
C=CC(=O)OCC(COC(=O)C=C)(COC(=O)C=C)COC(=O)C=C [Pentaerythritol tetraacrylate] |  | 178.8 |  | 172.6 | 
C=CC(=O)OCC(CO)(COC(=O)C=C)COC(=O)C=C [Pentaerythritol triacrylate] |  | 165.1 |  |  | 
OCCOCCOCCOCCOCCO [Pentaethylene glycol] |  | 150.1 |  |  | 
N=C(N)c1ccc(OCCCCCOc2ccc(C(=N)N)cc2)cc1 [Pentamidine isethionate] |  | 183.2 |  | 177.4 | 
N=C(N)c1ccc(OCCCCCOc2ccc(C(=N)N)cc2)cc1 [Pentamidine] |  |  | 176.9 |  | 
O=S(=O)(O)C(F)(F)C(F)(F)C(F)(F)C(F)(F)F [Perfluorobutanesulfonic acid] | 133.8 |  |  |  | 
O=C(O)C(F)(F)C(F)(F)C(F)(F)C(F)(F)C(F)(F)C(F)(F)C(F)(F)C(F)(F)C(F)(F)F [Perfluorodecanoic acid] | 175.1 |  |  |  | 
O=C(O)C(F)(F)C(F)(F)C(F)(F)C(F)(F)C(F)(F)C(F)(F)C(F)(F)C(F)(F)F [Perfluorononanoic acid] | 166.1 |  |  |  | 

SMILES | collision cross section in nitrogen [1] [Å²] | collision cross section in nitrogen [2] [Å²] | collision cross section in nitrogen [3] [Å²] | collision cross section in nitrogen [4] [Å²] | collision cross section in nitrogen (ion type: [M+], ion source: APCI, ion mode: Positive) [Å²]
NS(=O)(=O)C(F)(F)C(F)(F)C(F)(F)C(F)(F)C(F)(F)C(F)(F)C(F)(F)C(F)(F)F [Perfluorooctanesulfonamide] | 170.4 |  |  |  | 
O=S(=O)(O)C(F)(F)C(F)(F)C(F)(F)C(F)(F)C(F)(F)C(F)(F)C(F)(F)C(F)(F)F [Perfluorooctanesulfonic acid] | 168.7 |  |  |  | 
O=C(O)C(F)(F)C(F)(F)C(F)(F)C(F)(F)C(F)(F)C(F)(F)C(F)(F)F [Perfluorooctanoic acid] | 157 |  |  |  | 
O=C(O)C(F)(F)C(F)(F)C(F)(F)C(F)(F)C(F)(F)C(F)(F)C(F)(F)C(F)(F)C(F)(F)C(F)(F)F [Perfluoroundecanoic acid] | 183.9 |  |  |  | 
CCC[C@H](N[C@@H](C)C(=O)N1[C@H](C(=O)O)C[C@@H]2CCCC[C@@H]21)C(=O)OCC [Perindopril erbumine] | 190.7 | 196.4 |  | 189.7 | 
CCOc1ccc(NC(C)=O)cc1 [Phenacetin] |  |  | 141.4 | 141.5 | 
Nc1ccc(N=Nc2ccccc2)c(N)n1 [Phenazopyridine hydrochloride] | 148.1 |  | 150 | 150.3 | 
CCC1(c2ccccc2)C(=O)N=C(O)NC1=O (configuration not stated) [Phenobarbital sodium] | 150.4 |  |  |  | 
O=S1(=O)OC(c2ccc(O)cc2)(c2ccc(O)cc2)c2ccccc21 [Phenol Red sodium salt] | 181.8 |  |  | 179.8 | 
O=S1(=O)OC(c2ccc(O)cc2)(c2ccc(O)cc2)c2ccccc21 [Phenol red] | 182 |  |  |  | 
O=C1OC(c2ccc(O)cc2)(c2ccc(O)cc2)c2ccccc21 [Phenolphthalein] | 176.2 | 191.8 | 173.8 | 173.9 | 
O=C(O)c1ccccc1C(c1ccc(O)cc1)c1ccc(O)cc1 [Phenolphthalin] | 184.1 |  |  |  | 
c1ccc2c(c1)Nc1ccccc1S2 [Phenothiazine] |  |  |  |  | 136
CCOC(=O)C(SP(=S)(OC)OC)c1ccccc1 (configuration not stated) [Phenthoate] |  | 175.1 |  |  | 
O=C(Oc1ccccc1)c1ccccc1O [Phenyl salicylate] | 145.7 |  |  |  | 
O=C(Oc1ccccc1)c1ccc(O)cc1 [Phenylparaben] | 150.3 |  |  |  | 
O=P(O)(O)c1ccccc1 [Phenylphosphonic acid] | 130.1 |  |  |  | 
CCOP(=S)(OCC)SCS(=O)(=O)CC [Phorate sulfone] |  | 162.8 |  |  | 
CCOP(=O)(N=C1SCCS1)OCC [Phosfolan] |  | 165.3 | 150.2 | 150.2 | 
CCCCOP(=O)(O)OCCCC [Phosphoric acid, dibutyl ester] | 151.3 |  |  |  | 
